Experimental data as given in US8501734B2, “Medical intervention in haematological cancers” (Oncotyrol-Center for Personalized Cancer Medicine GmbH …, priority 2008, dated 2013).

Columns and labels:
U266 cells = test: Annexin V/PI apoptosis assay (FACS), U266 cells; type: cell-based; design: apoptosis induction: unit not given here; details: for apoptosis induction: Imi 20 μg/ml alone; as to apoptosis induction: key: 0 for no; + for low; ++: + indicates the range of apoptosis induction; +++: + indicates the range of apoptosis induction; ++++ for very strong apoptosis induction
Method: (§1) After treatment adherent cells were trypsinized (as described before), and resuspended in corresponding full medium. Suspension cells or trypsinized adherent cells, supernatant and washing solution (1×PBS from washing before trypsinization) were pooled and then spun down (300 g for 3 min) washed in 2 ml and resuspended in 1000 of annexin V binding buffer and mixed with 2 μg/ml annexin V-Allophycocyanin (APC) (BD-Pharmingen, San Diego, Calif., USA) and 50 ng/ml of propidium iodide (PI; Sigma Aldrich). At least 10.000 cells were measured per sample using a Becton Dickinson FACSCalibur flow Cytometer (San Jose, Calif., USA). Percentage of Annexin V negative and PI negative cells were depicted in the figures. For the analysis of the pro-apoptotic activity of Imiquimod® in primary MM cells and non-malignant BMMCs, 5×10^5 cells BMMCs cells were treated with or without 40 μg/ml Imiquimod® for the indicated time periods. Cells were then harvested and washed twice with PBS. Detection of apoptotic cells was performed using the annexin V/PI assay according to manufacturers' instruction. Briefly, BMMCs were stained with a mixture of annexin V/FITC (Alexis Coorp., Laeufelfingen, Switzerland), propidium iodide (Sigma), anti-CD38-PE and anti-CD45-PC5 for 15 min at room temperature and immediately analyzed by flow cytometry. The percentages of viable cells (i.e. cells negative for annexin V/FITC and PI) within the MM (CD38^posCD45^low/absent) and non-MM fraction (CD38^neg/CD45^pos) were determined by flow cytometry.
(§2) Adherent cells were grown in 24-well plates to confluence and treated with 40 μg/ml Imiquimod® for 24 h. Cells were then trypsinized, suspended in full medium, stained for AnnexinV/PI and apoptosis was measured as described before. Suspension cells (250.000) were treated with 40 μg/ml Imiquimod® for 24 h, stained for Annexin/PI and apoptosis was measured as described above (Annexin V/Propidium Iodide apoptosis Assay).
(§3) OPM-2 and U266 cells (2.5×10^5 in 500 μl) were treated with either Imiquimod® alone (10 μg/500 μl), various inhibitors/drugs alone or with the combination of Imiquimod® and inhibitors for 24 or 48 h. In the controls the solvent of the drug has been added in appropriate amounts. Cells were then AnnexinV/PI stained and apoptosis measured as described before.

[1] = tested on: human epidermoid carcinoma cell line A431; test: Apoptosis induction in A431 cells; type: cell-based
Method: as §1, with “For the analysis of the pro-apoptotic activity of Imiquimod® in primary MM cells and non-malignant BMMCs, 5×10^5 cells BMMCs cells were treated with or without 40 μg/ml Imiquimod® for the indicated time periods. Cells were then harvested and washed twice with PBS. Detection of apoptotic cells was performed using the annexin V/PI assay according to manufacturers' instruction.” left out
Adherent cells were grown in 24-well plates to confluence and treated with 40 μg/ml Imiquimod® for 24 h. Cells were then trypsinized, suspended in full medium, stained for AnnexinV/PI and apoptosis was measured as described before. […]

[2] = tested on: primary MM cells (CD38highCD45low); test: Annexin V/PI apoptosis assay, primary MM cells from patient bone marrow aspirates; type: cell-based, human; details: 40 μg/ml, 8 h or 24 h, time dependent
Method: For collection of primary multiple myeloma cells, bone marrow aspirates from iliac crests were collected during routine examinations after obtaining informed patient consent. Bone marrow mononuclear cells (BMMCs) were separated by density centrifugation. Fresh blood samples were diluted 1:1 with RPMI 1640 medium and layered over Biocoll separating solution (1.077 g/ml, Biochrom AG, Berlin; blood/RPMI1640/Biocoll; 1:1:1, v/v/v). Centrifugation was carried out for 20 min at 400 g. […] The percentage of multiple myeloma cells within the BMMCs was determined by flow cytometry. Briefly, 2×10^5 cells were stained for 15 min with fluorochrome-labelled antibodies to CD38 (phycoerythrin, PE) and CD45 (phycoerythrin-cyanin 5, PC5) (both from Beckman Coulter Inc., Fullerton, Calif., USA), washed with PBS and were immediately analyzed using the FC500 flow cytometer and the RXP1.0 software (Beckman Coulter). MM cells were detected by their high expression of CD38 and weak to absent expression of CD45.
After treatment adherent cells were trypsinized (as described before), and resuspended in corresponding full medium. […] At least 10.000 cells were measured per sample using a Becton Dickinson FACSCalibur flow Cytometer (San Jose, Calif., USA). […]

OPM2 cells [3] = test: Growth of OPM2 cells under multiple low doses (cell counting); type: cell-based
Method: 2×10^5 OPM2 cells in 1 ml of full medium were cultured in 24-well plates in duplicates for 8 days. For the first three days the appropriate amount of Imiquimod® (1, 2, 5, 5, or 10 μg/ml) was added daily. For determination of absolute cell numbers 100 μl of cell suspension were taken on days 1-5 and day 8 and cell number was determined using the CASY Cell Counter Model DT (Schärfe System GmbH, Reutlingen, Germany). On the fourth day cells were spun down (200 g, 2 min) and 600 μl of the remaining 700 μl of supernatant (100 μl were left to keep cell pellet undisturbed) were removed and 600 μl of fresh full medium was added to the cell culture.

OPM2 cells [4] = test: Annexin V/PI apoptosis assay (FACS), OPM2 cells; type: cell-based; design: apoptosis induction: unit not given here
Method: as §1
Cells were cultured as described before and, treated with 40 μg/ml Imiquimod® or Gardiquimod® for 24 h, and apoptosis was assayed by AnnexinV/PI staining and FACS analysis.
as §2, §3

OPM2 cells [5] = test: PARP cleavage assay (Western blot), OPM2 cells; type: cell-based; details: 40 μg/ml
Method: Cells were lysed in lysis-IP-Buffer supplemented with protease inhibitors and sodium orthovanadate. 10 μg of lysate were separated by SDS-PAGE (10% polyacrylamide) and transferred to methanol activated Hypond-P PVDF-membranes (Amersham, Freiburg, Germany) by semi-dry blotting. Membranes were blocked in a 3% bovine serum albumin solution or 5% non fat dry milk solution in phosphate buffered saline (PBS) with 0.1% Tween 20 (PBT). Primary antibodies were applied in blocking solution for 1 h at room temperature or over night at 4° C. Membranes were washed in PBT and incubated with corresponding secondary antibodies in 5% non fat dry milk in PBT for 1 h at room temperature. Cells were washed with PBT, incubated with ECL solution and exposed in a Fluorchem 5500 (Biozym, Oldendorf, Germany).
OPM2 cells were suspended in full medium and cultured in 24-well plates at a cell density of 500.000 cells/ml and well. Cells were left untreated (control) or treated over night with different concentrations of Imiquimod® (10, 20 or 40 μg/ml).
OPM2 cells were cultured in 24-well plates as described above. Imiquimod® (40 μg/ml) was added to cells (except controls) for different time periods (2, 4, 6 and 8 h) and the extent of PARP1 cleavage, IRAK1, IkB-α and IkB-β degradation were determined by Western blot. α-Tubulin was used as a loading control.

[6] = tested on: Raji, Daudi, Ramos, Jurkat, C7H2 cell lines; test: Annexin V/PI apoptosis assay, non-multiple myeloma suspension cell lines; type: cell-based; details: 24 h
Method: as §1, §2

CC(C)Cn1cnc2c(N)nc3ccccc3c21 [Imiquimod, 1-(2-methylpropyl)-1H-imidazo[4,5-c]quinolin-4-amine]
cells dying upon treatment (U266 cells; 40 μg/ml, 24 h): about 30% | apoptosis induction (U266 cells; 24 h): + | apoptosis induction (U266 cells; 48 h, listed as Imi): + and ++ | apoptosis induction [1]: no significant apoptosis induction | apoptosis induction [2]: significantly induced apoptosis | cell growth inhibition (OPM2 cells [3]; 3-times given dose of 10 μg/ml): sufficient to irreversibly inhibit cell growth | cell growth inhibition (OPM2 cells [3]; triple treatment with 5 μg/ml): sufficient to significantly block the growth potential | apoptosis induction (OPM2 cells [4]; OPM2 cells, 24 h, Imi 20 μg/ml alone): + | apoptosis induction, single agent (OPM2 cells [4]; OPM2 cells, 24 h, Imiquimod 20 μg/ml or Akt inhibitor alone): some apoptosis | apoptosis induction (OPM2 cells [4]; OPM2 cells, 48 h, Imi 20 μg/ml alone): ++ | apoptosis induction (OPM2 cells [4]; multiple myeloma cells, 10 μg/ml, 24 h): apoptosis induction | apoptosis induction in AnnexinV/PI FACS analysis assay (OPM2 cells [4]; multiple myeloma cells, 40 μg/ml): 70% | PARP cleavage (OPM2 cells [5]; 2 hours after application): some PARP cleavage | apoptosis induction in PARP cleavage assay (OPM2 cells [5]; 6 h to 8 h after application): 100% | PARP cleavage (OPM2 cells [5]; after 6 hours): nearly complete PARP cleavage | onset of apoptosis induction (OPM2 cells [5]; multiple myeloma cells): 2 h | sensitivity (apoptosis) ([6]; Raji and Jurkat, 40 μg/ml): if at all only low sensitivity | apoptosis induction ([6]; Raji, Daudi, Ramos, Jurkat, C7H2, 20 μg/ml): apoptosis to some minor degree
